Key:
Type in all cases: biochemical
[1] = biological target: Escherichia coli O157:H7 sugar isomerase (EcSI), wild type, SEQ ID NO: 3 (Escherichia coli, UniProt A0A6M7H989)
[2] = biological target: Escherichia coli O157:H7 sugar isomerase (EcSI, SEQ ID NO: 3) variant I112C (Escherichia coli, UniProt A0A6M7H989, I112C)
[3] = biological target: Escherichia coli O157:H7 sugar isomerase (EcSI, SEQ ID NO: 3) variant T56M (Escherichia coli, UniProt A0A6M7H989, T56M)
[4] = biological target: Escherichia coli O157:H7 sugar isomerase (EcSI, SEQ ID NO: 3) variant M92L (Escherichia coli, UniProt A0A6M7H989, M92L)
[5] = biological target: Escherichia coli O157:H7 sugar isomerase (EcSI, SEQ ID NO: 3) variant I112C T56M (Escherichia coli, UniProt A0A6M7H989, I112C/T56M)
[6] = biological target: Escherichia coli O157:H7 sugar isomerase (EcSI, SEQ ID NO: 3) variant I112C T56M M92L (Escherichia coli, UniProt A0A6M7H989, I112C/M92L/T56M)

OCC1(O)OC[C@H](O)[C@@H](O)[C@@H]1O (stereo partly drawn) [L-sorbose]
kcat [1]: 84 S^−1
kcat/Km [1]: 0.63 mM^−1S^−1
kcat [2]: 88 S^−1
kcat/Km [2]: 0.92 mM^−1S^−1
kcat [3]: 101 S^−1
kcat/Km [3]: 0.85 mM^−1S^−1
kcat [4]: 105 S^−1
kcat/Km [4]: 0.70 mM^−1S^−1
kcat [5]: 144 S^−1
kcat/Km [5]: 1.53 mM^−1S^−1
kcat [6]: 245 S^−1
kcat/Km [6]: 2.28 mM^−1S^−1

From patent publication US10253341B2, “Mutant sugar isomerase with improved activity, derived from E. coli, and production of L-gulose using the same” (priority 2014, dated 2019)
